Data reported in article PMC5540250, “Influence of the Number of Axial Bexarotene Ligands on the Cytotoxicity of Pt(IV) Analogs of Oxaliplatin” (Bioinorganic Chemistry and Applications, 2017).
Where two headings read alike, the source gives them in different places.

What was measured:
[1] = system: colon carcinoma SW480 cells; test: MTT cytotoxicity test, 72 h, SW480; format: cell-based, human; settings: mean ± standard deviation from 3 independent experiments
Protocol: (§1) The MCF7, MCF7D (gift of N. I. Moiseeva), HaCat, A549, and SW480 cell lines were cultured in Dulbecco modified Eagle's medium (DMEM; PanEco, Russia) with 10% fetal bovine serum (HyClone, USA) and antibiotics (PanEco, Russia) in 5% CO2, 37°C. The compounds were predissolved at 20 mM in dimethyl sulfoxide (DMSO) and added to the cell culture at the required concentration with maximum DMSO content of 0.5 v/v%. Cells in 96-well plates (7 × 10^3 cells/well) were treated with various concentrations of 3, 4, cisplatin, or bexarotene at 37°C for 72 h. Cell viability was determined using the MTT assay as follows: cells were incubated at 37°C for 4 h with 20 μl of 5 mg/ml solution of 3-(4,5-dimethylthiazol-2-yl)-2,5 diphenyltetrazolium bromide (Sigma-Aldrich, St. Louis, USA). The supernatant was discarded and formazan was dissolved in 150 μl of DMSO. The optical density of the solution was measured at 550 nm on a multiwell plate reader (Multiskan FC, Thermo Fisher Scientific, USA). The percentage of viable (i.e., MTT converting) cells was calculated from the absorbance of untreated cells (100%). Each experiment was repeated three times, and each concentration was tested in three replicates.
(§2) The cytotoxicity of complexes 3 and 4, bexarotene, and cisplatin was evaluated in the human MCF7 breast cancer cell line and its doxorubicin/cisplatin resistant subline MCF7D, as well as against colon carcinoma SW480 cells, non-small cell lung carcinoma A549, and immortalized human nonmalignant keratinocyte HaCat cell line using the colorimetric MTT-test after 72 h of incubation (Table 1). The cytotoxic potency of oxaliplatin, the Pt(II) precursor of the new complexes, was taken from literature.

[2] = system: non-small cell lung carcinoma A549; test: MTT cytotoxicity test, 72 h, A549; format: cell-based, human; settings: A549 cells, mean ± standard deviation from 3 independent experiments
Protocol: as §1, §2

[3] = system: human MCF7 breast cancer cell line; test: MTT cytotoxicity test, 72 h, MCF7; format: cell-based; settings: MCF7 cells, mean ± standard deviation from 3 independent experiments
Protocol: as §1, §2

[4] = system: doxorubicin/cisplatin resistant subline MCF7D; test: MTT cytotoxicity test, 72 h, MCF7D; format: cell-based, human; settings: MCF7D cells (doxorubicin/cisplatin resistant), mean ± standard deviation from 3 independent experiments
Protocol: as §1, §2

[5] = system: immortalized human nonmalignant keratinocyte HaCat cell line; test: MTT cytotoxicity test, 72 h, HaCat; format: cell-based; settings: HaCat nonmalignant keratinocytes, mean ± standard deviation from 3 independent experiments
Protocol: as §1, §2

[6] = system: colon carcinoma SW480 cells; parameters: method as in PMID 22331606; settings: taken from literature; cited from earlier work
[7] = system: non-small cell lung carcinoma A549; parameters: method as in PMID 22331606; settings: A549 cells; taken from literature; cited from earlier work
[8] = system: human MCF7 breast cancer cell line; parameters: method as in PMID 22213516; settings: MCF7 cells; taken from literature; cited from earlier work

| Compound | IC50 [1] | IC50 [2] | IC50 [3] | IC50 [4] | IC50 [5] | also measured |
| --- | --- | --- | --- | --- | --- | --- |
| C=C(c1ccc(C(=O)O)cc1)c1cc2c(cc1C)C(C)(C)CCC2(C)C [Bexarotene, 4-(1-(3,5,5,8,8-pentamethyl-5,6,7,8-tetrahydro-2-naphthyl)vinyl)benzoic acid] | – | – | – | – | – | IC50 ([1]; Homo sapiens): 80 ± 10 µM; IC50 ([2]; Homo sapiens): 85 ± 9 µM; IC50 ([3]; Homo sapiens): 67 ± 13 µM; IC50 ([4]; Homo sapiens): 71 ± 21 µM; IC50 ([5]; Homo sapiens): > 90 µM |
| N.N.[Cl][Pt][Cl] [Cisplatin] | 14 ± 4.4 µM | 29 ± 10 µM | 14 ± 7 µM | 75 ± 5.8 µM | 30 ± 10 µM | – |
| O=C(O)C(=O)O.[NH-][C@@H]1CCCC[C@H]1[NH-].[Pt+2] [Oxaliplatin] | – | – | – | – | – | IC50 [6]: 0.9 ± 0.3 µM; IC50 [7]: 11.5 ± 3.9 µM; IC50 [8]: 43.8 µM |
| (OC-6-33)-(trans-1R,2R-Diaminocyclohexane)-bis(4-(1-(3,5,5,8,8-pentamethyl-5,6,7,8-tetrahydro-2-naphthyl)vinyl)benzoato)oxalatoplatinum(IV) [Complex 3] | > 100 µM | 83 ± 16 µM | > 100 µM | > 100 µM | > 100 µM | – |
| (OC-6-44)-acetato(trans-1R,2R-Diamineocyclohexane)-4-(1-(3,5,5,8,8-pentamethyl-5,6,7,8-tetrahydro-2-naphthyl)vinyl)benzoato)oxalatoplatinum(IV) [Complex 4] | 11 ± 1.6 µM | 10 ± 1 µM | 0.47 ± 0.07 µM | 4.8 ± 0.5 µM | 8 ± 1.3 µM | IC50 MCF7 [3]: submicromolar range |
